These results are taken from ChEMBL document CHEMBL1154450, “Synthesis and biological evaluation of diversely substituted indolin-2-ones” (Eur J Med Chem, 2008).

The target of assay [1] is Tyrosine-protein kinase ABL1 (Homo sapiens, UniProt P00519). The experiment in a line: Inhibition of c-Abl.
For assay [2], the system named is Candida albicans. The experiment in a line: Antimicrobial activity against Candida albicans IP444 at 300 ug/disk after 24 hrs by paper disk diffusion test. It is filed as functional. Particulars: for zone of inhibition at 300 µg/disc: read-out: IZ. A general note: Agar diffusion results depend on both activity and mobility in agar.
The target in assay [3] is Hepatocyte growth factor receptor (Homo sapiens, UniProt P08581). The experiment in a line: Inhibition of cMet.
Assay [4] relates to Streptomyces chartreusis. The experiment in a line: Antibacterial activity against Streptomyces chartreusis NRRL 11407 at 300 ug/disk after 24 hrs by paper disk diffusion test. It is filed as functional. The note with it: NRRL 11407, 24 h, read-out: IZ.
Assay [5] addresses Proto-oncogene tyrosine-protein kinase Src (Homo sapiens, UniProt P12931). Put plainly: Inhibition of Src.
Assay [6] has as its target Vascular endothelial growth factor receptor 2 (Homo sapiens, UniProt P35968). The experiment in a line: Inhibition of KDR.
The subject of assay [7] is Escherichia coli. Put plainly: Antibacterial activity against Escherichia coli ATCC 11303 at 300 ug/disk after 24 hrs by paper disk diffusion test. The note with it: for zone of inhibition at 300 µg/disc: ATCC 11303, 24 h, read-out: IZ. It is filed as functional.
Assay [8] concerns the target Proto-oncogene tyrosine-protein kinase receptor Ret (Homo sapiens, UniProt P07949). The experiment in a line: Inhibition of Ret.
For assay [9], the system named is Bacillus cereus. The experiment in a line: Antibacterial activity against Bacillus cereus ATCC 14579 at 300 ug/disk after 24 hrs by paper disk diffusion test. Format: functional. The note with it: ATCC 14579, 24 h, read-out: IZ.
A short description of assay [10]: Inhibition of PKA.
Assay [11] addresses Insulin-like growth factor 1 receptor (Homo sapiens, UniProt P08069). The experiment in a line: Inhibition of IGF1R.
For assay [12], the target named is Cyclin-dependent kinase 2 (Homo sapiens, UniProt P24941). Put plainly: Inhibition of CDK2/Cyclin A.

Active and inactive are the calls of the source. No cut-off for these calls is given here.

Chain of Tyrosine-protein kinase ABL1 (P00519 whole entry, the tested form may be a part): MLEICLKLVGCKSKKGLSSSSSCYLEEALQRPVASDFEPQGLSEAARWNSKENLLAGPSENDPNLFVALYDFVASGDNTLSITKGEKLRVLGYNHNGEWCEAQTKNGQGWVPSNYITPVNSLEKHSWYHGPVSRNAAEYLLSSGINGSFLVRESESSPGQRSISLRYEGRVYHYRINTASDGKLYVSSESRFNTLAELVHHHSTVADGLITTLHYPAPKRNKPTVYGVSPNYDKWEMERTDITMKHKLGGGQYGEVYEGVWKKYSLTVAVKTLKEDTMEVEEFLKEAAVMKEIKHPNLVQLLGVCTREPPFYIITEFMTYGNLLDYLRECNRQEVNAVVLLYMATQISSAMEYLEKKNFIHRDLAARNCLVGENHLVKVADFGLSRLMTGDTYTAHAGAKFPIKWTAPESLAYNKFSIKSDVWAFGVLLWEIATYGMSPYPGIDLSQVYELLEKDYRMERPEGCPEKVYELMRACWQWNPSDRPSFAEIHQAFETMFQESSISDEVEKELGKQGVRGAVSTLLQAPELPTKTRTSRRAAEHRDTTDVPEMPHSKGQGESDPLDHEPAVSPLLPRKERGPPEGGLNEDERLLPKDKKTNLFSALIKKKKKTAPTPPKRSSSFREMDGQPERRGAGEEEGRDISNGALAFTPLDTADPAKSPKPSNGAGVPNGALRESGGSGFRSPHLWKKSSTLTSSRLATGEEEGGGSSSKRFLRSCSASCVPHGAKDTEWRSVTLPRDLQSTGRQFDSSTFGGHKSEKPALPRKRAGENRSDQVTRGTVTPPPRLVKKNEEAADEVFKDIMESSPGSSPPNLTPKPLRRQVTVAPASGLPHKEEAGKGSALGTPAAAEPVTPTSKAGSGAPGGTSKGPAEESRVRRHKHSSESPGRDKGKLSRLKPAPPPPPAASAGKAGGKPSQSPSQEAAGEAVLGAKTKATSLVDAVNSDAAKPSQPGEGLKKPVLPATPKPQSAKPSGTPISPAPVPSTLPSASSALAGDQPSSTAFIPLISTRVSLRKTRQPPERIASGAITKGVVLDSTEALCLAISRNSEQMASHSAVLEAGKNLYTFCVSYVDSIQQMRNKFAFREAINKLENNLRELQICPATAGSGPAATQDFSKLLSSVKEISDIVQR
Chain of Proto-oncogene tyrosine-protein kinase Src (P12931 2-536 limits assumed): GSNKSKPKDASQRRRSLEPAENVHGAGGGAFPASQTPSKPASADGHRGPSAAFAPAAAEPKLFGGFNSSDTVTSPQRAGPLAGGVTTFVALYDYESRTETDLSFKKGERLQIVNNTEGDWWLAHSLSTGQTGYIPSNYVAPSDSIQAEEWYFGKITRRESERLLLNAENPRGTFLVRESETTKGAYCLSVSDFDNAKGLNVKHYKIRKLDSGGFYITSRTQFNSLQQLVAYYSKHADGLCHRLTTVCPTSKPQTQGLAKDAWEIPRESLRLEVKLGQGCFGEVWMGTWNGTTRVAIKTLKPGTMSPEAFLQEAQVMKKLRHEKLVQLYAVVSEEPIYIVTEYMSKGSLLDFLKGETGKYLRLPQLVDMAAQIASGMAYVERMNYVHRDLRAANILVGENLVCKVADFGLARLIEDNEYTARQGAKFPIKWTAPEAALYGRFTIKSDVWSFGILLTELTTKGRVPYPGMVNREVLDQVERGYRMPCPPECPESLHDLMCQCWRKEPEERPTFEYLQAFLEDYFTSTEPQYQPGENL
Chain of Insulin-like growth factor 1 receptor (P08069 31-736 limits assumed): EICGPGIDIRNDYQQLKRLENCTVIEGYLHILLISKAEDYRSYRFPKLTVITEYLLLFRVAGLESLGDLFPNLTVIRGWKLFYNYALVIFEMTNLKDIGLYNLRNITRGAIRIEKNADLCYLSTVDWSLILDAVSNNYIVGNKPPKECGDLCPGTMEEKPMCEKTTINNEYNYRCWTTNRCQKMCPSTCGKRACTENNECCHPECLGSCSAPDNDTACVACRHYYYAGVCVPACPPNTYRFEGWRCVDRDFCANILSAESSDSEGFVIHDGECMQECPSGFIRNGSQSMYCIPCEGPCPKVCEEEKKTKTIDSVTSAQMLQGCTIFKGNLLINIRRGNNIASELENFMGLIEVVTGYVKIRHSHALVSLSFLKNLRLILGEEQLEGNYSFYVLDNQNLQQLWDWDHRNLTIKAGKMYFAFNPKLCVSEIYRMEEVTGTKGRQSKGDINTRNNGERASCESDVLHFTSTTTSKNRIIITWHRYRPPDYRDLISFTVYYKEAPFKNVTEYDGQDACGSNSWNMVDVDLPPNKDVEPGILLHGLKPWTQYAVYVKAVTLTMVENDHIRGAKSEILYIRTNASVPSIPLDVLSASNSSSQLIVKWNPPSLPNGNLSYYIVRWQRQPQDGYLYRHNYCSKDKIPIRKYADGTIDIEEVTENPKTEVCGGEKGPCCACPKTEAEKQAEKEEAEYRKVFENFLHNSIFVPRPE
Chain of Insulin-like growth factor 1 receptor (P08069 741-1367 limits assumed): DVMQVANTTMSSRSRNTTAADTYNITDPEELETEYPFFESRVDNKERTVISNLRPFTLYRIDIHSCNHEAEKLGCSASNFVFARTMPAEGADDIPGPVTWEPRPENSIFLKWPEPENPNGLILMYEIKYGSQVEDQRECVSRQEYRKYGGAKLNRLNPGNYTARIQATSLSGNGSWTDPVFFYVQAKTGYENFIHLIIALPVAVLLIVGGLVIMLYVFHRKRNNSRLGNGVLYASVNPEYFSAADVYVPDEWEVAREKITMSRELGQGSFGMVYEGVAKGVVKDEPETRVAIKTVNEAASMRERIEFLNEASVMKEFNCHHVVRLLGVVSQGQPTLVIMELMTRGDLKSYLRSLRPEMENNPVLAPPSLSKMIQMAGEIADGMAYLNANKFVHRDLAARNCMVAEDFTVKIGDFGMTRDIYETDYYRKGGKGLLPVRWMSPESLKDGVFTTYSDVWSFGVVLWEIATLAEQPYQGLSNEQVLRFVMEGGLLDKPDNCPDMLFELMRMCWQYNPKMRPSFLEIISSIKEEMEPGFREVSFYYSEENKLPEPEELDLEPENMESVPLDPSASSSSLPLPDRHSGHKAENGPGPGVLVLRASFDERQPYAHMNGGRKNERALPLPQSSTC
Chain of Vascular endothelial growth factor receptor 2 (P35968 whole entry, the tested form may be a part): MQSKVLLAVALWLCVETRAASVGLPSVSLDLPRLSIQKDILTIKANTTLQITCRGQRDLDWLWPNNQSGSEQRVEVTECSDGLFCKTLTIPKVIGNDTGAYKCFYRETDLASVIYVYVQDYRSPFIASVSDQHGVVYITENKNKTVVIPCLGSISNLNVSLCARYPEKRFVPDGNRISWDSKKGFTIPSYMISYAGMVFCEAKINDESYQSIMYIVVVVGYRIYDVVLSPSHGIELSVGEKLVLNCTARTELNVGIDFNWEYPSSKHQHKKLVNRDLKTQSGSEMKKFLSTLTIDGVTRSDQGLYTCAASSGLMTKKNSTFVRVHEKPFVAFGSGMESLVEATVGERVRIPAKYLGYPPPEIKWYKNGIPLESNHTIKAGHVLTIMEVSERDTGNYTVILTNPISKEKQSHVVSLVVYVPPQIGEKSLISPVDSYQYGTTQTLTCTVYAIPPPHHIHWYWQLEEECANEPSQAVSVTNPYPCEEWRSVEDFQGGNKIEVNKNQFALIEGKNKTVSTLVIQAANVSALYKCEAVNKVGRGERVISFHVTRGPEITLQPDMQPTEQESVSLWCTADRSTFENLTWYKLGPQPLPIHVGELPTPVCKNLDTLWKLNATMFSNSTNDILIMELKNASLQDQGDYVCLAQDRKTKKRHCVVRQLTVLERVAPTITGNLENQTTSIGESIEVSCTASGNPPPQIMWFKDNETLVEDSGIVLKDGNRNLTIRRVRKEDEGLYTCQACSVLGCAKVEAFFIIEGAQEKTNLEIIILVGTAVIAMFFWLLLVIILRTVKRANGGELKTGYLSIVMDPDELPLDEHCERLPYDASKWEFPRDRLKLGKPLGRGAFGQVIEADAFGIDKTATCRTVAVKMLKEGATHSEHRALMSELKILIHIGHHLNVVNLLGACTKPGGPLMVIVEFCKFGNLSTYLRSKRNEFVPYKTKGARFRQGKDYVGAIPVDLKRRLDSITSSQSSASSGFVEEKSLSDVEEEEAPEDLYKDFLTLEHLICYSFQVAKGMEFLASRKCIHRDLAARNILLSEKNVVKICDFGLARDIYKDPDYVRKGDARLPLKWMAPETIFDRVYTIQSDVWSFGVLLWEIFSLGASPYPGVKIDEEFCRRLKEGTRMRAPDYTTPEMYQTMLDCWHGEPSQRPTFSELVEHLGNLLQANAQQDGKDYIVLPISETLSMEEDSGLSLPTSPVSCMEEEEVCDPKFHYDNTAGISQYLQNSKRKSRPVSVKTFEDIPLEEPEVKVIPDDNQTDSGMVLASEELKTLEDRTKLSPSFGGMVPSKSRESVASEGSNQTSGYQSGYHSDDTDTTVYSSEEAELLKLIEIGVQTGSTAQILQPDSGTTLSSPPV

As to `N[C@@H](CCCN/C=C1\C(=O)Nc2ccccc21)C(=O)O`, the IC50 in [1], in assay [3], in [5], in [6], in [8] and in [10] was more than 10 µM each time. The IC50 – broadly, the point on the concentration scale where inhibition reaches its midpoint – in [11] is more than 10 µM. Further, the zone of inhibition at 300 µg/disc was found to be 6 mm in [2], 10 mm in [4], 6 mm in assay [7] and 7 mm in [9].

Regarding `C[C@@H]1[C@H](O)[C@@H](C)/C=C/C=C/C=C/C=C/C=C/C=C/C=C/[C@H](O[C@@H]2O[C@H](C)[C@@H](O)[C@H](N)[C@@H]2O)C[C@@H]2O[C@](O)(C[C@@H](O)C[C@@H](O)[C@H](O)CC[C@@H](O)C[C@@H](O)CC(=O)O[C@H]1C)C[C@H](O)[C@H]2C(=O)O` [AMPHOTERICIN B], the zone of inhibition at 300 µg/disc in assay [2] is 13 mm.

As to `N[C@@H](CCCCN/C=C1\C(=O)Nc2ccccc21)C(=O)O`, the IC50 in assay [1], in assay [3], in [5], in assay [6], in [8] and in assay [10] was more than 10 µM in each case. Further, in assay [11], the IC50 was more than 10 µM. Further, the zone of inhibition at 300 µg/disc in assay [2], in [4] and in [9] was 6 mm in each case. Moreover, the result in assay [7] was inactive.

Regarding `CC1(C)S[C@@H]2[C@H](NC(=O)[C@H](N)c3ccccc3)C(=O)N2[C@H]1C(=O)O` [AMPICILLIN], the zone of inhibition at 300 µg/disc was determined as 25 mm in [4], 31 mm in [7] and 13 mm in assay [9].

For the compound `N[C@@H](CCCN/C=C1\C(=O)Nc2ccc(Br)cc21)C(=O)O`, the IC50 was more than 10 µM in assay [1]; more than 10 µM in assay [3]; more than 10 µM in assay [5]; more than 10 µM in assay [6]; 6.6 µM in assay [12]; more than 10 µM in [8]. Also, the IC50 in assay [10] and in [11] was more than 10 µM throughout. In addition, the outcome in [2] and in [7] was inactive. The results for the zone of inhibition at 300 µg/disc in assay [4] and in [9] were 8 mm and 7 mm, respectively.

Turning to `N[C@@H](CCCCN/C=C1\C(=O)Nc2ccc(Br)cc21)C(=O)O`, the IC50 in assay [1], in [3], in assay [5], in assay [6], in assay [8] and in [10] was more than 10 µM throughout. The same compound showed an IC50 in assay [11] of more than 10 µM. Besides, the zone of inhibition at 300 µg/disc in assay [2] was 6 mm; in assay [4], 7 mm; in assay [9] it was 6 mm. In [7], the result was inactive.
